According to ChEMBL document CHEMBL4627248, “Emerging small-molecule therapeutic approaches for amyotrophic lateral sclerosis and frontotemporal dementia” (Bioorg Med Chem Lett, 2020):

Columns and labels:
[1] = biological target: T1, TAR DNA-binding protein 43 (Homo sapiens, UniProt Q13148); test: Binding affinity to TDP-43 (unknown origin)
(G4C2)8 hairpin RNA = test: Binding affinity to (G4C2)8 hairpin RNA (unknown origin) by TO-PRO-1 dye displacement assay
[2] = biological target: T1, TAR DNA-binding protein 43; test: Inhibition of TDP-43 (unknown origin) binding to RNA

T1 sequence (Q13148 whole entry): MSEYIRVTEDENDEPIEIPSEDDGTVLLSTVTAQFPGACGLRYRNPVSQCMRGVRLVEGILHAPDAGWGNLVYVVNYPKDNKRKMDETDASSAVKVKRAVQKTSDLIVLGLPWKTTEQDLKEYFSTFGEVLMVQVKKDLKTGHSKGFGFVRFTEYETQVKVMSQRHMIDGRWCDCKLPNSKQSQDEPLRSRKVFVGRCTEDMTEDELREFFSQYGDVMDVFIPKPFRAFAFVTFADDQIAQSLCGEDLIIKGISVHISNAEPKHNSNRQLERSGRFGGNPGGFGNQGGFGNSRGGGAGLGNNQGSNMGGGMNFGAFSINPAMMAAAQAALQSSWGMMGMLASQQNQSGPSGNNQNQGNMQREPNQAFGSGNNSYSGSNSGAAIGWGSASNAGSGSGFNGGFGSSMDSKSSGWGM

Row | SMILES | Kd ((G4C2)8 hairpin RNA) | IC50 [2] | further results
1 | NC(=O)c1cncc(N2CCCC(CO)(Cc3ccc(F)cc3)C2)n1 (stereo not given) | – | – | Kd [1]: 89 µM
2 | CCN(CC)CC[n+]1ccc2c(C)c3[nH]c4ccc(O)cc4c3c(C)c2c1 | 1.4 µM | – | –
3 | CCN(CC)CCNC(=O)c1cc2cc(NC(=O)c3cc4cc(N)ccc4[nH]3)ccc2[nH]1 | 16 µM | – | –
4 | O=C1c2c(O)ccc(O)c2C(=O)c2c(NCCNCCO)ccc(NCCNCCO)c21 [MITOXANTRONE] | – | 10 µM | –
5 | CCc1cccc(C)c1NS(=O)(=O)c1cnccc1C(=O)N1CCCC1 | – | > 0.1 µM | –
6 | COc1cc(NC(=O)CCC2CCCN(Cc3ccc(F)c(OC)c3)C2)cc(OC)c1 (stereo not given) | – | 0.1 µM | –

Now from value to compound, other results behind:

Row | Kd ((G4C2)8 hairpin RNA) | IC50 [2] | SMILES | further results
7 | 0.9 µM | – | Cc1c2cc[n+](C)cc2c(C)c2c1[nH]c1ccc(O)cc12 | –
8 | 10 µM | – | N=C(N)c1ccc(Nc2ccc(-c3cc4ccc(C(=N)N)cc4[nH]3)cc2)cc1 | –
9 | – | 20 µM | O=C(O)CCCC[C@@H]1CCSS1 [THIOCTIC ACID] | –
10 | – | 20 µM | NC(=O)CCCCC1CCSS1 (racemic) [THIOCTIC ACID AMIDE] | –
